Earlier results, collected in patent US12048727B2, “Synergistic formulation against acne and a process for the preparation thereof” (COUNCIL OF SCIENTIFIC & INDUSTRIAL RESEARCH, priority 2019, dated 2024).

System: P. acnes strains
Settings: Indian population

SMILES	resistance of antibiotics
CC[C@H]1OC(=O)[C@H](C)[C@@H](O[C@H]2C[C@@](C)(OC)[C@@H](O)[C@H](C)O2)[C@H](C)[C@@H](O[C@@H]2O[C@H](C)C[C@H](N(C)C)[C@H]2O)[C@](C)(O)C[C@@H](C)CN(C)[C@H](C)[C@@H](O)[C@]1(C)O [azithromycin]	100%
CC[C@H]1OC(=O)[C@H](C)[C@@H](O[C@H]2C[C@@](C)(OC)[C@@H](O)[C@H](C)O2)[C@H](C)[C@@H](O[C@@H]2O[C@H](C)C[C@H](N(C)C)[C@H]2O)[C@](C)(O)C[C@@H](C)C(=O)[C@H](C)[C@@H](O)[C@]1(C)O [erythromycin]	98%
